Source: patent US9181183B2, “Prostaglandin D synthase inhibitory piperidine compounds” (Taiho Pharmaceutical Co., Ltd., priority 2010, dated 2015)

Molecular target: human H-PGDS (Homo sapiens, UniProt O60760)
Experiment: Hematopoietic prostaglandin D synthase (H-PGDS) inhibiting action, [14C]PGH2 to PGD2 conversion, TLC radioassay
Type: biochemical
Conditions: compound 0.1 μM; inhibition rate relative to solvent control group; [14C] prostaglandin H2 10 μM, 25° C.; read-out: H-PGDS inh. (% at 0.1 μM)
Procedure: The test was carried out according to the method of Urade, Y. et al. (J. Biol. Chem., 262, 3820-3825, (1987)). More specifically, a reaction mixture (49 μL) containing 100 mM Tris-HCl (pH 8.0), 1 mM reduced form glutathione, 0.1 mg/mL γ-globulin, human H-PGDS (q.s.), and a compound (0.1 μM) was preincubated at 25° C. for 5 minutes. A DMSO solution (final concentration: 1%) was added to the solvent control group. Subsequently, 1 μL of [^14C] prostaglandin H2 (final concentration: 10 μM) was added to start the reaction. One minute after the start of the reaction, 250 μL of a reaction stopper solution (diethylether/methanol/1M citric acid (30/4/1)) cooled with ice was added to stop the reaction. After the reaction was stopped, 50 μL of the upper layer portion (organic solvent phase) was applied to a TLC plate and developed at −20° C. for 45 minutes (developing solvent: diethylether/methanol/acetic acid (90/2/1)). After the TLC plate was dried and exposed to an imaging plate for 1 to 24 hours, the radioactivity corresponding to prostaglandin D2 (PGD2) was analyzed using an image analyzer (produced by Fujifilm Corporation). The area (%) occupied by the PGD2 band per lane and the inhibition rate (%) of each Example compound at 0.1 μM relative to the control group in each experiment were calculated.

Sequence of human H-PGDS (O60760 whole entry): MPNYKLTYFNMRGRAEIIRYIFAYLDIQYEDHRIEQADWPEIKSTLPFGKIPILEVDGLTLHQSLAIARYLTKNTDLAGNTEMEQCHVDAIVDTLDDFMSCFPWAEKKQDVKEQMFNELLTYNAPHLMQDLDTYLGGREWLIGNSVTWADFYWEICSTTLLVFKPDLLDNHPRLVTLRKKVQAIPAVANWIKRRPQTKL

| Structure (SMILES) | inhibition at 0.1 µM |
| --- | --- |
| O=C(NC1CCN(C(=O)C(F)F)CC1)N1CCC(=Cc2cc(F)ccc2F)CC1 [Example 43, N-(1-(2,2-difluoroacetyl)piperidin-4-yl)-4-(2,5-difluorobenzylidene)piperidine-1-carboxamide] | 68% |
| O=C(NC1CCN(CC(F)F)CC1)N1CCC(=Cc2cc(F)ccc2F)CC1 [Example 44, 4-(2,5-difluorobenzylidene)-N-(1-(2,2-difluoroethyl)piperidin-4-yl)piperidine-1-carboxamide] | 81% |
| O=C(NC1CCN(C(=O)C2CC2)CC1)N1CCC(=Cc2cc(F)ccc2F)CC1 [Example 45, N-(1-(cyclopropanecarbonyl)piperidin-4-yl)-4-(2,5-difluorobenzylidene)piperidine-1-carboxamide] | 48.8% |
| CC(C)(C)C(=O)N1CCC(NC(=O)N2CCC(=Cc3cc(F)ccc3F)CC2)CC1 [Example 46, 4-(2,5-difluorobenzylidene)-N-(1-pivaloylpiperidin-4-yl)piperidine-1-carboxamide] | 77.3% |
| CC(C)C(=O)N1CCC(NC(=O)N2CCC(=Cc3cc(F)ccc3F)CC2)CC1 [Example 48, 4-(2,5-difluorobenzylidene)-N-(1-isobutyrylpiperidin-4-yl)piperidine-1-carboxamide] | 65.7% |
| O=C(NC1CCN(C(=O)C2CCCCC2)CC1)N1CCC(=Cc2cc(F)ccc2F)CC1 [Example 49, N-(1-(cyclohexanecarbonyl)piperidin-4-yl)-4-(2,5-difluorobenzylidene)piperidine-1-carboxamide] | 39.6% |
| O=C(NC1CCN(C(=O)C2CCC2)CC1)N1CCC(=Cc2cc(F)ccc2F)CC1 [Example 50, N-(1-(cyclobutanecarbonyl)piperidin-4-yl)-4-(2,5-difluorobenzylidene)piperidine-1-carboxamide] | 59.9% |
| CN(C)C(=O)N1CCC(NC(=O)N2CCC(=Cc3cc(F)ccc3F)CC2)CC1 [Example 52, 4-(4-(2,5-difluorobenzylidene)piperidine-1-carboxamido)-N,N-dimethylpiperidine-1-carboxamide] | 74.6% |
| O=C(NC1CCN(C(=O)C2CCCC2)CC1)N1CCC(=Cc2cc(F)ccc2F)CC1 [Example 53, N-(1-(cyclopentanecarbonyl)piperidin-4-yl)-4-(2,5-difluorobenzylidene)piperidine-1-carboxamide] | 69% |
| O=C(NC1CCN(C(=O)c2cccs2)CC1)N1CCC(=Cc2cc(F)ccc2F)CC1 [Example 54, 4-(2,5-difluorobenzylidene)-N-(1-(thiophene-2-carbonyl)piperidin-4-yl)piperidine-1-carboxamide] | 85.9% |
| Cn1cccc1C(=O)N1CCC(NC(=O)N2CCC(=Cc3cc(F)ccc3F)CC2)CC1 [Example 55, 4-(2,5-difluorobenzylidene)-N-(1-(1-methyl-1H-pyrrole-2-carbonyl)piperidin-4-yl)piperidine-1-carboxamide] | 70.9% |
| O=C(NC1CCN(C(=O)N2CCCCC2)CC1)N1CCC(=Cc2cc(F)ccc2F)CC1 [Example 57, 4-(2,5-difluorobenzylidene)-N-(1-(piperidine-1-carbonyl)piperidin-4-yl)piperidine-1-carboxamide] | 62.3% |
| O=C(NC1CCN(C(=O)c2cscn2)CC1)N1CCC(=Cc2cc(F)ccc2F)CC1 [Example 59, 4-(2,5-difluorobenzylidene)-N-(1-(thiazole-4-carbonyl)piperidin-4-yl)piperidine-1-carboxamide] | 76.8% |
| Cc1cccnc1C(=O)N1CCC(NC(=O)N2CCC(=Cc3cc(F)ccc3F)CC2)CC1 [Example 62, 4-(2,5-difluorobenzylidene)-N-(1-(3-methylpicolinoyl)piperidin-4-yl)piperidine-1-carboxamide] | 54.2% |
| Cc1ccnc(C(=O)N2CCC(NC(=O)N3CCC(=Cc4cc(F)ccc4F)CC3)CC2)c1 [Example 63, 4-(2,5-difluorobenzylidene)-N-(1-(4-methylpicolinoyl)piperidin-4-yl)piperidine-1-carboxamide] | 64.7% |
| O=C(Nc1nccs1)N1CCC(NC(=O)N2CCC(=Cc3cc(F)ccc3F)CC2)CC1 [Example 65, 4-(2,5-difluorobenzylidene)-N-(1-(thiazol-2-ylcarbamoyl)piperidin-4-yl)piperidine-1-carboxamide] | 55.4% |

Further lines, results first:

| inhibition at 0.1 µM | Structure (SMILES) |
| --- | --- |
| 61.4% | O=C(Nc1cnc2ccccc2c1)N1CCC(=Cc2cc(F)ccc2F)CC1 [Example 42, 4-(2,5-difluorobenzylidene)-N-(quinolin-3-yl)piperidine-1-carboxamide] |
| 62% | O=C(NC1CCN(C(=O)c2ccccc2)CC1)N1CCC(=Cc2cc(F)ccc2F)CC1 [Example 47, N-(1-benzoylpiperidin-4-yl)-4-(2,5-difluorobenzylidene)piperidine-1-carboxamide] |
| 50% | O=C(NC1CCN(C(=O)c2ccccn2)CC1)N1CCC(=Cc2cc(F)ccc2F)CC1 [Example 51, 4-(2,5-difluorobenzylidene)-N-(1-picolinoylpiperidin-4-yl)piperidine-1-carboxamide] |
| 59.3% | O=C(Nc1ccccc1)N1CCC(NC(=O)N2CCC(=Cc3cc(F)ccc3F)CC2)CC1 [Example 56, 4-(2,5-difluorobenzylidene)-N-(1-(phenylcarbamoyl)piperidin-4-yl)piperidine-1-carboxamide] |
| 80.8% | O=C(Nc1ncc(C(=O)N2CCOCC2)s1)N1CCC(=Cc2cc(F)ccc2F)CC1 [Example 58, 4-(2,5-difluorobenzylidene)-N-(5-(morpholine-4-carbonyl)thiazol-2-yl)piperidine-1-carboxamide] |
| 67.1% | O=C(NC1CCN(C(=O)c2ccccc2F)CC1)N1CCC(=Cc2cc(F)ccc2F)CC1 [Example 60, 4-(2,5-difluorobenzylidene)-N-(1-(2-fluorobenzoyl)piperidin-4-yl)piperidine-1-carboxamide] |
| 67.7% | O=C(NC1CCN(C(=O)c2cccc(F)c2)CC1)N1CCC(=Cc2cc(F)ccc2F)CC1 [Example 61, 4-(2,5-difluorobenzylidene)-N-(1-(3-fluorobenzoyl)piperidin-4-yl)piperidine-1-carboxamide] |
| 51% | O=C(Nc1ccccn1)N1CCC(NC(=O)N2CCC(=Cc3cc(F)ccc3F)CC2)CC1 [Example 64, 4-(2,5-difluorobenzylidene)-N-(1-(pyridin-2-ylcarbamoyl)piperidin-4-yl)piperidine-1-carboxamide] |
| 68.6% | O=C(NC1CCN(C(=O)c2cccc(F)n2)CC1)N1CCC(=Cc2cc(F)ccc2F)CC1 [Example 66, 4-(2,5-difluorobenzylidene)-N-(1-(6-fluoropicolinoyl)piperidin-4-yl)piperidine-1-carboxamide] |
| 51.7% | O=C(Nc1ccon1)N1CCC(NC(=O)N2CCC(=Cc3cc(F)ccc3F)CC2)CC1 [Example 67, 4-(2,5-difluorobenzylidene)-N-(1-(isoxazol-3-ylcarbamoyl)piperidin-4-yl)piperidine-1-carboxamide] |
| 59.8% | O=C(Nc1ccc(OCc2ccccc2)cc1)N1CCC(=Cc2ccccn2)CC1 [Example 68, N-(4-(benzyloxy)phenyl)-4-(pyridin-2-ylmethylene)piperidine-1-carboxamide] |
| 51.3% | O=C(Nc1ccc(OCc2ccccc2)cc1)N1CCC(=Cc2cc(F)ccc2F)CC1 [Example 69, N-(4-(benzyloxy)phenyl)-4-(2,5-difluorobenzylidene)piperidine-1-carboxamide] |
| 84.2% | O=C(Nc1ccc(Oc2ncccn2)cc1)N1CCC(=Cc2cc(F)ccc2F)CC1 [Example 70, 4-(2,5-difluorobenzylidene)-N-(4-(pyrimidin-2-yloxy)phenyl)piperidine-1-carboxamide] |
| 62.9% | O=C(Nc1ccc(Nc2ccccc2)cc1)N1CCC(=Cc2ccccn2)CC1 [Example 71, N-(4-(phenylamino)phenyl)-4-(pyridin-2-ylmethylene)piperidine-1-carboxamide] |
| 68.7% | O=C(Nc1ccc(Nc2ccccc2)cc1)N1CCC(=Cc2cc(F)ccc2F)CC1 [Example 72, 4-(2,5-difluorobenzylidene)-N-(4-(phenylamino)phenyl)piperidine-1-carboxamide] |
| 71% | O=C(Nc1ccccc1)Nc1ccc(NC(=O)N2CCC(=Cc3cc(F)ccc3F)CC2)cc1 [Example 73, 4-(2,5-difluorobenzylidene)-N-(4-(3-phenylureido)phenyl)piperidine-1-carboxamide] |
| 70.9% | O=C(Nc1ccc(NC(=O)N2CCC(=Cc3cc(F)ccc3F)CC2)cc1)c1ccccn1 [Example 74, N-(4-(4-(2,5-difluorobenzylidene)piperidine-1-carboxamido)phenyl)picolinamide] |
| 71.2% | O=C(Nc1ccc(NC(=O)N2CCC(=Cc3cc(F)ccc3F)CC2)cc1)c1cscn1 [Example 75, N-(4-(4-(2,5-difluorobenzylidene)piperidine-1-carboxamido)phenyl)thiazole-4-carboxamide] |
| 79.4% | O=C(Nc1ccc(NC(=O)N2CCC(=Cc3cc(F)ccc3F)CC2)cc1)c1ccsc1 [Example 76, 4-(2,5-difluorobenzylidene)-N-(4-(thiophene-3-carboxamido)phenyl)piperidine-1-carboxamide] |
